Experiments:
bamyardgrass = experiment: Test B flood test barnyardgrass; type: in vivo, Echinochloa crus-galli
Procedure, shortened: (§1)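 Plants were grown to the 2-leaf stage before treatment with test chemical, then held in a greenhouse for twelve to sixteen days. Injury was visually rated against untreated controls on a 0–10 scale, where 0 is no effect and 10 is complete control.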

blackgrass = experiment: Test B pre/postemergence blackgrass; type: in vivo, Alopecurus myosuroides
Procedure, shortened: (§2)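 Test chemicals in a non-phytotoxic solvent mixture with surfactant were sprayed preemergence onto planted seeds and postemergence onto plants 2 to 18 cm tall (1- to 4-leaf stage). After twelve to sixteen days in a greenhouse, injury was visually rated against untreated controls from 0 (no effect) to 10 (complete control).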

wild oat = experiment: Test B pre/postemergence wild oat; type: in vivo, Avena fatua
Procedure, shortened: as §2

rice = experiment: Test B flood test rice; type: in vivo, Oryza sativa
Procedure, shortened: as §1

smallflower flatsedge = experiment: Test B flood test smallflower flatsedge; type: in vivo, Cyperus difformis
Procedure, shortened: as §1

[1] = Rate 62 g/ha, flood test species, Pre-emergence, visual evaluation after twelve to sixteen days
[2] = Rate 125 g/ha, under heading Pre-emergence, flood test species, visual evaluation after twelve to sixteen days
[3] = Rate 250 g/ha, Pre-emergence (flood test species), scale 0 to 10, 0 is no effect, 10 is complete control
[4] = Rate 500 g/ha, Pre-emergence section of Table B, 0 to 10 scale (0 no effect, 10 complete control)
[5] = Postemergence, Rate 62 g/ha, scale 0 to 10, 0 is no effect, 10 is complete control
[6] = Postemergence, Rate 125 g/ha, scale of 0 to 10 where 0 is no effect and 10 is complete control
[7] = Preemergence, Rate 62 g/ha, scale of 0 to 10 where 0 is no effect and 10 is complete control
[8] = Preemergence, Rate 125 g/ha, scale of 0 to 10 where 0 is no effect and 10 is complete control
[9] = Preemergence, Rate 250 g/ha, scale 0 to 10 (0 no effect, 10 complete control)
[10] = Preemergence, Rate 500 g/ha, scale of 0 to 10 where 0 is no effect and 10 is complete control
[11] = Rate 500 g/ha, Postemergence, scale 0 to 10, 0 is no effect, 10 is complete control
[12] = Rate 125 g/ha, Postemergence section (flood test species), scale 0 to 10, 0 no effect, 10 complete control
[13] = Rate 500 g/ha, Postemergence section of Table B, 0 to 10 scale (0 no effect, 10 complete control)
[14] = flood test, listed under Postemergence, Rate 250 g/ha, scale 0 to 10, 0 no effect, 10 complete control
[15] = Postemergence, Rate 250 g/ha, scale 0 to 10, 0 no effect, 10 complete control
[16] = Preemergence, Rate 62 g/ha, scale 0 to 10, 0 is no effect, 10 is complete control
[17] = Preemergence, Rate 125 g/ha, scale 0 to 10 (0 no effect, 10 complete control)
[18] = Preemergence, Rate 250 g/ha, scale of 0 to 10 where 0 is no effect and 10 is complete control
[19] = Preemergence, Rate 500 g/ha, scale 0 (no effect) to 10 (complete control)
[20] = Rate 125 g/ha, Postemergence, scale 0 to 10, 0 no effect, 10 complete control
[21] = Rate 500 g/ha, Postemergence, 0 to 10 scale (0 no effect, 10 complete control)
[22] = Preemergence, Rate 31 g/ha, visual rating, scale 0 to 10 (0 no effect, 10 complete control)
[23] = Rate 125 g/ha, Pre-emergence, flood test species, scale 0 to 10 where 0 is no effect and 10 is complete control
[24] = Rate 250 g/ha, headed Pre-emergence (flood test species), scale 0 to 10 (0 no effect, 10 complete control)
[25] = Rate 500 g/ha, headed Pre-emergence (flood test species), scale 0 to 10 (0 no effect, 10 complete control)
[26] = Rate 1000 g/ha, Pre-emergence (as headed), scale 0 to 10
[27] = Rate 500 g/ha, Postemergence, scale 0 to 10, 0 no effect, 10 complete control
[28] = Rate 2000 g/ha, Pre-emergence (as headed), scale 0 to 10
[29] = Rate 500 g/ha, listed under Postemergence (flood test species), scale 0 to 10, 0 no effect, 10 complete control

C#CC(C)n1c(=O)on(C(=O)N(c2ccc(Cl)cc2)C(C)C)c1=O (racemic) [Compound 658]
Plant response rating, Barnyardgrass (0 to 10 scale, 0 is no effect, 10 is complete control) (bamyardgrass; [1]): 0
Barnyardgrass plant response rating (0 to 10 scale, 0 is no effect, 10 is complete control) (bamyardgrass; [2]): 0
Barnyardgrass plant response rating (bamyardgrass; [3]): 0
Barnyardgrass plant response rating (bamyardgrass; [4]): 0
Plant response rating, Blackgrass (blackgrass; [5]): 0
Blackgrass plant response rating (blackgrass; [6]): 3
Blackgrass plant response rating (blackgrass; Postemergence, Rate 250 g/ha, scale of 0 to 10, 0 is no effect, 10 is complete control): 6
Blackgrass plant response rating (blackgrass; [7]): 3
Blackgrass plant response rating (blackgrass; [8]): 7
Plant response rating, Blackgrass (blackgrass; [9]): 7
Plant response rating, Blackgrass (blackgrass; [10]): 7
Blackgrass plant response rating (blackgrass; [11]): 7
Plant response rating, Wild oats (wild oat; [5]): 1
Wild oats plant response rating (wild oat; [6]): 1
Wild oats plant response rating (wild oat; [7]): 0
Wild oats plant response rating (wild oat; [8]): 2
Plant response rating, Wild oats (wild oat; [9]): 3
Plant response rating, Wild oats (wild oat; [10]): 4
Wild oats plant response rating (wild oat; [11]): 2
Plant response rating, Rice (0 to 10 scale, 0 is no effect, 10 is complete control) (rice; [1]): 0
Rice plant response rating (0 to 10 scale, 0 is no effect, 10 is complete control) (rice; [2]): 0
Rice plant response rating (rice; [3]): 0
Rice plant response rating (rice; [4]): 0
Plant response rating, S. Flatsedge (0 to 10 scale, 0 is no effect, 10 is complete control) (smallflower flatsedge; [1]): 0
S. Flatsedge plant response rating (0 to 10 scale, 0 is no effect, 10 is complete control) (smallflower flatsedge; [2]): 0
S. Flatsedge plant response rating (smallflower flatsedge; [3]): 0
S. Flatsedge plant response rating (smallflower flatsedge; [4]): 0

Cc1c(Cl)cccc1-n1c(=O)on(C(=O)N(c2ccc(F)cc2)C(C)C)c1=O [Compound 21]
Barnyardgrass plant response rating (bamyardgrass; [5]): 0
Barnyardgrass plant response rating (bamyardgrass; [12]): 0
Barnyardgrass plant response rating (bamyardgrass; [13]): 0
Barnyardgrass plant response rating (bamyardgrass; [14]): 0
Blackgrass plant response rating (blackgrass; [5]): 0
Blackgrass plant response rating (blackgrass; [15]): 0
Plant response rating, Blackgrass (blackgrass; [16]): 0
Plant response rating, Blackgrass (blackgrass; [17]): 0
Plant response rating, Blackgrass (blackgrass; [18]): 0
Blackgrass plant response rating (blackgrass; [19]): 0
Blackgrass plant response rating (blackgrass; [20]): 0
Blackgrass plant response rating (blackgrass; [21]): 0
Wild oats plant response rating (wild oat; [5]): 0
Wild oats plant response rating (wild oat; [15]): 0
Plant response rating, Wild oats (wild oat; [17]): 0
Plant response rating, Wild oats (wild oat; [18]): 0
Wild oats plant response rating (wild oat; [19]): 0
Wild oats plant response rating (wild oat; [20]): 0
Rice plant response rating (rice; [5]): 0
Rice plant response rating (rice; [12]): 0
Rice plant response rating (rice; [13]): 0
Rice plant response rating (rice; [14]): 0
S. Flatsedge plant response rating (smallflower flatsedge; [5]): 0
S. Flatsedge plant response rating (smallflower flatsedge; [12]): 0
S. Flatsedge plant response rating (smallflower flatsedge; [14]): 0

CCN(C(=O)n1oc(=O)n(-c2c(C)cccc2C)c1=O)C1CCCCC1 [Compound 27]
Barnyardgrass plant response rating (bamyardgrass; [5]): 0
Barnyardgrass plant response rating (bamyardgrass; [12]): 0
Barnyardgrass plant response rating (bamyardgrass; [13]): 9
Barnyardgrass plant response rating (bamyardgrass; [14]): 8
Blackgrass plant response rating (blackgrass; [5]): 0
Blackgrass plant response rating (blackgrass; [15]): 0
Blackgrass plant response rating (blackgrass; [22]): 0
Plant response rating, Blackgrass (blackgrass; [16]): 0
Plant response rating, Blackgrass (blackgrass; [17]): 0
Plant response rating, Blackgrass (blackgrass; [18]): 0
Blackgrass plant response rating (blackgrass; Rate 31 g/ha, Postemergence, scale 0 to 10): 0
Blackgrass plant response rating (blackgrass; [20]): 0
Wild oats plant response rating (wild oat; [5]): 0
Wild oats plant response rating (wild oat; [15]): 0
Wild oats plant response rating (wild oat; [22]): 0
Plant response rating, Wild oats (wild oat; [17]): 0
Plant response rating, Wild oats (wild oat; [18]): 0
Wild oats plant response rating (wild oat; [20]): 0
Rice plant response rating (rice; [5]): 0
Rice plant response rating (rice; [12]): 0
Rice plant response rating (rice; [13]): 2
Rice plant response rating (rice; [14]): 0
S. Flatsedge plant response rating (smallflower flatsedge; [5]): 0
S. Flatsedge plant response rating (smallflower flatsedge; [12]): 0
S. Flatsedge plant response rating (smallflower flatsedge; [14]): 0

Cc1ccccc1-n1c(=O)on(C(=O)N(c2ccc([N+](=O)[O-])cc2)C(C)C)c1=O [Compound 44]
Barnyardgrass plant response rating (bamyardgrass; [5]): 0
Barnyardgrass plant response rating (bamyardgrass; [12]): 0
Barnyardgrass plant response rating (bamyardgrass; [13]): 0
Barnyardgrass plant response rating (bamyardgrass; [14]): 0
Blackgrass plant response rating (blackgrass; [5]): 0
Blackgrass plant response rating (blackgrass; [15]): 0
Plant response rating, Blackgrass (blackgrass; [16]): 0
Plant response rating, Blackgrass (blackgrass; [17]): 0
Plant response rating, Blackgrass (blackgrass; [18]): 0
Blackgrass plant response rating (blackgrass; [19]): 1
Blackgrass plant response rating (blackgrass; [20]): 0
Blackgrass plant response rating (blackgrass; [21]): 0
Wild oats plant response rating (wild oat; [5]): 0
Wild oats plant response rating (wild oat; [15]): 0
Plant response rating, Wild oats (wild oat; [17]): 0
Plant response rating, Wild oats (wild oat; [18]): 0
Wild oats plant response rating (wild oat; [19]): 0
Wild oats plant response rating (wild oat; [20]): 0
Rice plant response rating (rice; [5]): 0
Rice plant response rating (rice; [12]): 0
Rice plant response rating (rice; [13]): 0
Rice plant response rating (rice; [14]): 0
S. Flatsedge plant response rating (smallflower flatsedge; [5]): 0
S. Flatsedge plant response rating (smallflower flatsedge; [12]): 0
S. Flatsedge plant response rating (smallflower flatsedge; [14]): 0

Cc1cccc(C)c1-n1c(=O)on(C(=O)N(c2ccc(Cl)cc2)C(C)C)c1=O [Compound 47]
Barnyardgrass plant response rating (bamyardgrass; [23]): 0
Barnyardgrass plant response rating (bamyardgrass; [24]): 0
Plant response rating, Barnyardgrass (bamyardgrass; [25]): 1
Barnyardgrass plant response rating (bamyardgrass; [26]): 6
Barnyardgrass plant response rating (bamyardgrass; Rate 2000 g/ha, Pre-emergence (as headed), scale 0 to 10, 0 no effect, 10 complete control): 8
Blackgrass plant response rating (blackgrass; [5]): 0
Blackgrass plant response rating (blackgrass; [15]): 0
Plant response rating, Blackgrass (blackgrass; [16]): 0
Plant response rating, Blackgrass (blackgrass; [17]): 0
Plant response rating, Blackgrass (blackgrass; [18]): 0
Blackgrass plant response rating (blackgrass; [19]): 0
Blackgrass plant response rating (blackgrass; [20]): 0
Blackgrass plant response rating (blackgrass; [27]): 0
Wild oats plant response rating (wild oat; [5]): 0
Wild oats plant response rating (wild oat; [15]): 0
Plant response rating, Wild oats (wild oat; [17]): 0
Plant response rating, Wild oats (wild oat; [18]): 0
Wild oats plant response rating (wild oat; [19]): 0
Wild oats plant response rating (wild oat; [20]): 0
Wild oats plant response rating (wild oat; [27]): 3
Rice plant response rating (rice; [23]): 0
Rice plant response rating (rice; [24]): 0
Plant response rating, Rice (rice; [25]): 0
Rice plant response rating (rice; [26]): 0
Rice plant response rating (rice; [28]): 0
S. Flatsedge plant response rating (smallflower flatsedge; Pre-emergence, Rate 1000 g/ha, scale 0 to 10 (0 no effect, 10 complete control)): 2
S. Flatsedge plant response rating (smallflower flatsedge; [23]): 0
S. Flatsedge plant response rating (smallflower flatsedge; [24]): 2
Plant response rating, S. Flatsedge (smallflower flatsedge; [25]): 2
S. Flatsedge plant response rating (smallflower flatsedge; [28]): 0

CCc1cccc(C)c1-n1c(=O)on(C(=O)N(c2ccc(F)cc2)C(C)C)c1=O [Compound 52]
Barnyardgrass plant response rating (bamyardgrass; [5]): 0
Barnyardgrass plant response rating (bamyardgrass; [12]): 0
Barnyardgrass plant response rating (bamyardgrass; [29]): 0
Barnyardgrass plant response rating (bamyardgrass; [14]): 0
Blackgrass plant response rating (blackgrass; [5]): 0
Blackgrass plant response rating (blackgrass; [15]): 0
Plant response rating, Blackgrass (blackgrass; [16]): 0
Plant response rating, Blackgrass (blackgrass; [17]): 0
Plant response rating, Blackgrass (blackgrass; [18]): 3
Blackgrass plant response rating (blackgrass; [19]): 4
Blackgrass plant response rating (blackgrass; [20]): 0
Blackgrass plant response rating (blackgrass; [27]): 0
Wild oats plant response rating (wild oat; [5]): 0
Wild oats plant response rating (wild oat; [15]): 1
Plant response rating, Wild oats (wild oat; [17]): 0
Plant response rating, Wild oats (wild oat; [18]): 0
Wild oats plant response rating (wild oat; [19]): 1
Wild oats plant response rating (wild oat; [20]): 0
Wild oats plant response rating (wild oat; [27]): 1
Rice plant response rating (rice; [5]): 0
Rice plant response rating (rice; [12]): 0
Rice plant response rating (rice; [29]): 0
Rice plant response rating (rice; [14]): 0
S. Flatsedge plant response rating (smallflower flatsedge; [5]): 0
S. Flatsedge plant response rating (smallflower flatsedge; [12]): 0
S. Flatsedge plant response rating (smallflower flatsedge; [29]): 0
S. Flatsedge plant response rating (smallflower flatsedge; [14]): 0

Reference: US6737383B1, “Herbicidal oxadiazolidines” (priority 1999, dated 2004)
